Assay results: publication PMC7038160, “Design, Synthesis, and Evaluation of Acetylcholinesterase and Butyrylcholinesterase Dual-Target Inhibitors against Alzheimer’s Diseases” (Molecules, 2020)
Entries after “also recorded” stand apart in the source; their conditions may differ.

Key:
PC12 cells = assay: Cytotoxicity in PC12 cells (MTT assay); type: cell-based; conditions: 10, 20, 30 and 50 μM, 24 h
Method: We focused on the cytotoxicity of the synthetic compounds. The reason for using PC12 is that our compounds act on the central nervous system, so we need to find out whether the compound has a toxic effect on normal nerve cells. Compounds 6b, 6c, 6d, 10s, 8i, and 10v were selected as representative compounds to assess their potential cytotoxic effects.
Pheochromocytoma-derived cell line (PC12 cells) were grown in Dulbecco’s Modified Eagle Medium (DMEM) supplemented with 10% FBS at 37 °C in a humidified atmosphere containing 5% CO2. To carry out the experiment, cells (6 × 10^3 cells/well) were seeded in 96-well plate in complete medium. […]

[1] = biological target: T1, AChE from Electrophorus electricus (eeAChE) (Electrophorus electricus, UniProt O42275); assay: biochemical; type: biochemical; conditions: for SI (selectivity index = AChE IC50/BChE IC50): eeAChE IC50 / eqBChE IC50; for IC50 / AChE IR (inhibitory rate): eeAChE from electric eel; for IC50: mean ± SEM of triplicate independent experiments; for AChE IR (inhibitory rate): compounds under 100 μM
T1 construct: purchased Sigma-Aldrich
Method: (§1) According to the method described by Ellman, the data were expressed by IC50 values.
(§2) The inhibitory activity of the target compound against AChE (from Electrophorus electricus (eeAChE), Sigma-Aldrich, Munich, Germany) and horse serum BChE (eqBChE, Sigma-Aldrich, Munich, Germany) were measured by Ellman’s method. In 96-well plates, a mixture of phosphate buffer (0.1 M, pH 8.0, […]), 5,5′-dithiobis-2-nitrobenzoic acid (DTNB, 60 μL), acetylcholinesterase or butyrylcholinesterase (20 μL, 5 IU/mL) and different concentrations of the compounds solution (30 μL) was pre-incubated for 5 min and then substrates (acetylthiocholine iodide or butyrylthiocholine iodide, 20 μL) were added.
(§3) The measurement of each concentration for each compound was detected in triplicate. GraphPad Prism 6.0 (GraphPad Software, Inc., La Jolla, CA, USA) was used for data processing. The inhibition curve was fitted by plotting the logarithm of the concentration of the tested compounds with the percentage of enzyme activity (reference to 100%). The (IC50) value was calculated according to the inhibition curve and the data were shown in the layout of mean ± SEM by GraphPad Prism 6.0.

[2] = biological target: T2, horse serum BChE (eqBChE) (Equus caballus, UniProt P81908); assay: biochemical; type: biochemical; conditions: eqBChE from horse serum; for IC50: mean ± SEM of triplicate independent experiments; for BChE IR (inhibitory rate): compounds under 100 μM
T2 construct: horse serum BChE (eqBChE, Sigma-Aldrich, Munich, Germany); purchased Sigma-Aldrich; host or cells: horse serum
Method: as §1, §2, §3

eqBChE [3] = biological target: T3, eqBChE (Equus caballus, UniProt P81908); assay: Kinetics of BChE inhibition (Lineweaver–Burk plots); type: biochemical; conditions: substrate 90-904 μM
T3 construct: horse serum BChE (eqBChE, Sigma-Aldrich, Munich, Germany); purchased Sigma-Aldrich; host or cells: horse serum
Method: (§4) To determine the kinetic types of AChE and BChE inhibition, compounds 8i and 10s were selected for kinetic studies. In each case, the kinetic types of enzyme inhibition were obtained by the modified Ellman’s method and the Lineweaver–Burk secondary plots. […] According to the result of molecular docking study.
(§5) Kinetic studies were performed in the same manner as the determination of ChEs inhibition, with substrate (ATC/BTC) concentrations of 90, 150, 226, 452 and 904 μM. The concentration of compound 8i was set to 0, 0.25, 0.5, 0.75, 1 μM, and the concentration of compound 10s was set to 1, 2.5, 5, 7.5, 10 μM. The enzymatic reaction was extended to 7 min for eeAChE and eqBChE before the determination of the absorption. The Vmax and Km values of Michaelis-Menten kinetics were calculated by nonlinear regression from the substrate-velocity curves using GraphPad Prism 6.0. Linear regression was used to fit the Lineweaver–Burk plot.

eeAChE = biological target: T4, eeAChE (Electrophorus electricus, UniProt O42275); assay: Kinetics of AChE inhibition (Lineweaver–Burk plots); type: biochemical, Electrophorus electricus (electric eel); conditions: substrate 90-904 μM
T4 construct: purchased Sigma-Aldrich
Method: as §4, §5

eqBChE [4] = biological target: T3, eqBChE; design: method as in earlier work; conditions: lead compound from previous virtual screening; cited from earlier work

T3 sequence (P81908 whole entry): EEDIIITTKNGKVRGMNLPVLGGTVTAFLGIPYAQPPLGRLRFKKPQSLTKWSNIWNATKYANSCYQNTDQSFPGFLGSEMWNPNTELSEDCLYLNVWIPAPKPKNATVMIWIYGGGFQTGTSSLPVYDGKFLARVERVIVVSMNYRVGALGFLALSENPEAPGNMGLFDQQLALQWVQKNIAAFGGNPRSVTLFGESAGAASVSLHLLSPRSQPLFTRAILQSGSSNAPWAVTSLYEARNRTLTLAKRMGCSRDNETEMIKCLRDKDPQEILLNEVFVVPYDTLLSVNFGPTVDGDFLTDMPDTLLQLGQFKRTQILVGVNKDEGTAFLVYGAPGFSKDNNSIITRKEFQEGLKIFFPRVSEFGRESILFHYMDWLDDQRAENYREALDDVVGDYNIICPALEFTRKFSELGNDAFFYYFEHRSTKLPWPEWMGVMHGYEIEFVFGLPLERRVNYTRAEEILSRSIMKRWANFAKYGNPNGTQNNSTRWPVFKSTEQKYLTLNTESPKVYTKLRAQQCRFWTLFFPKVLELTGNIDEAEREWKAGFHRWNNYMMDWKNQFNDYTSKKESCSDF
T2 sequence (P81908 whole entry): as above
T1 sequence (O42275 24-633): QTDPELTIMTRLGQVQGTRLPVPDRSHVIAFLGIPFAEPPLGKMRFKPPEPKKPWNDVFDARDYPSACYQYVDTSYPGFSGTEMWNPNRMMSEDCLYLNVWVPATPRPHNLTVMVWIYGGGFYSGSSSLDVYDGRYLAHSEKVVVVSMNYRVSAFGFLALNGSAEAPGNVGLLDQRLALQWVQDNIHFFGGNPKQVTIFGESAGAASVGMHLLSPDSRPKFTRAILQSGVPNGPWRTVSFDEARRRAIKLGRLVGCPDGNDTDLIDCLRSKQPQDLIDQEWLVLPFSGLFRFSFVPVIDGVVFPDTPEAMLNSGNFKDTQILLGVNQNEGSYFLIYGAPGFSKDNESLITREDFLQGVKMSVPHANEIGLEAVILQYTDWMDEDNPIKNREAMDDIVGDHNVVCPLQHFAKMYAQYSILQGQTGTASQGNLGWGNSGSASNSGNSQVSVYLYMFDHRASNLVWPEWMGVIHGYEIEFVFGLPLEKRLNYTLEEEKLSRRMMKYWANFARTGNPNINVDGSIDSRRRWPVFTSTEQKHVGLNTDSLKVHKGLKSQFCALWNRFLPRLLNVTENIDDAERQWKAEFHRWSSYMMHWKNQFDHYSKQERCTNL
T4 sequence (O42275 24-633): as above

Row | SMILES | SI (selectivity index = AChE IC50/BChE IC50) [1] | IC50 [1] [µM] | IC50 [2] [µM] | AChE IR (inhibitory rate) [1] | BChE IR (inhibitory rate) [2] [%] | other results
1 | O=C(NCC1CCN(Cc2ccccc2)CC1)c1ccc2[nH]ncc2c1 [Compound 6c, N-((1-Benzylpiperidin-4-yl)methyl)-1H-indazole-5-carboxamide] | 0.25 | 9.06 ± 2.57 | 36.6 ± 17.5 | – | – | cytotoxicity compared with Tacrine (PC12 cells): less toxic than Tacrine
2 | COc1ccc(CN2CCC(CNS(=O)(=O)c3ccc(C)cc3)CC2)cc1 [Compound 10u, N-((1-(4-Methoxybenzyl)piperidin-4-yl)methyl)-4-methylbenzenesulfonamide] | – | – | – | 11.61% | 18.31 | –
3 | O=C1Cc2cc(C(=O)NCC3CCN(Cc4ccc(C(F)(F)F)cc4)CC3)ccc2N1 [Compound 8l, 2-Oxo-N-((1-(4-(trifluoromethyl)benzyl)piperidin-4-yl)methyl)indoline-5-carboxamide] | – | 21.5 ± 9.37 | – | – | 35.20 | –
4 | O=C(CC1CCN(CCc2ccccc2Cl)CC1)Nc1ccc2[nH]ccc2c1 [Compound 16b, 2-(1-(2-Chlorophenethyl)piperidin-4-yl)-N-(1H-indol-5-yl)acetamide] | – | – | – | 8.95% | 31.21 | –
5 | O=C(NCC1CCN(Cc2ccc(C(F)(F)F)cc2)CC1)c1ccc2[nH]nnc2c1 [Compound 6h, N-((1-(4-(Trifluoromethyl)benzyl)piperidin-4-yl)methyl)-1H-benzo[d][1,2,3]triazole-5-carboxamide] | – | 40.2 ± 27.6 | – | – | 30.71 | –
6 | O=C(NCC1CCN(Cc2ccccc2Cl)CC1)c1ccc2[nH]nnc2c1 [Compound 6g, N-((1-(2-Chlorobenzyl)piperidin-4-yl)methyl)-1H-benzo[d][1,2,3]triazole-5-carboxamide] | 0.58 | 29.2 ± 16.4 | 49.9 ± 37.3 | – | – | –
7 | O=C1Cc2cc(C(=O)NCC3CCN(Cc4ccccc4)CC3)ccc2N1 [Compound 8i, N-((1-Benzylpiperidin-4-yl)methyl)-2-Oxoindoline-5-carboxamide] | 1.39 | 0.39 ± 0.04 | 0.28 ± 0.1 | – | – | cytotoxicity compared with Tacrine (PC12 cells): lower than that of Tacrine; also recorded: less toxic than Tacrine; also recorded: lowest toxicity; kinetic type of BChE inhibition (eqBChE [3]): mixed-type inhibition; kinetic type of AChE inhibition (eeAChE): mixed-type inhibition
8 | O=C(CC1CCN(CCc2ccccc2)CC1)Nc1ccc2[nH]cnc2c1 [Compound 16c, N-(1H-Benzo[d]imidazol-5-yl)-2-(1-phenethylpiperidin-4-yl)acetamide] | – | – | – | no inhibitory activity and no | 30.59 | –
9 | COc1ccc(CN2CCC(CNC(=O)c3ccc4[nH]cnc4c3)CC2)cc1 [Compound 11d] | – | – | – | 18.81% | – | –
10 | Cc1ccc(S(=O)(=O)NCC2CCN(Cc3ccccc3Cl)CC2)cc1 [Compound 10t, N-((1-(2-Chlorobenzyl)piperidin-4-yl)methyl)-4-methylbenzenesulfonamide] | 2.74 | 5.5 ± 2.56 | 2.01 ± 0.7 | – | – | –
11 | Cn1c(=O)n(C)c2cc(S(=O)(=O)NCC3CCN(Cc4ccc(F)cc4)CC3)ccc21 [Compound G801-0274] | – | – | – | – | – | IC50 (eqBChE [4]): 0.03 µM
12 | Cc1ccc(S(=O)(=O)NCC2CCN(Cc3ccccc3)CC2)cc1 [Compound 10s, N-((1-Benzylpiperidin-4-yl)methyl)-4-methylbenzenesulfonamide] | 1.03 | 4.24 ± 2.44 | 4.1 ± 3.74 | – | – | cytotoxicity compared with Tacrine (PC12 cells): slightly more toxic than Tacrine; kinetic type of BChE inhibition (eqBChE [3]): same inhibition type; kinetic type of AChE inhibition (eeAChE): same inhibition type
13 | COc1ccc(CN2CCC(CNC(=O)c3ccc4c(c3)CC(=O)N4)CC2)cc1 [Compound 8k, N-((1-(4-Methoxybenzyl)piperidin-4-yl)methyl)-2-Oxoindoline-5-carboxamide] | – | – | – | no | 22.26 | –
14 | Cc1ccc(S(=O)(=O)NCC2CCN(Cc3ccc(C(F)(F)F)cc3)CC2)cc1 [Compound 10v, 4-Methyl-N-((1-(4-(trifluoromethyl)benzyl)piperidin-4-yl)methyl)benzenesulfonamide] | 1.01 | – | 7.14 ± 5.27 | – | – | –
15 | O=C(NCC1CCN(Cc2ccc(C(F)(F)F)cc2)CC1)c1ccc2[nH]cnc2c1 [Compound 6e, N-((1-(4-(Trifluoromethyl)benzyl)piperidin-4-yl)methyl)-1H-benzo[d]imidazole-5-carboxamide] | – | 48.5 ± 36.2 | – | – | 39.88 | –
16 | O=C(NCC1CCN(Cc2ccccc2Cl)CC1)c1ccc2[nH]ccc2c1 [Compound 6b, N-((1-(2-Chlorobenzyl)piperidin-4-yl)methyl)-1H-Indole-5-carboxamide] | 1.57 | 15 ± 6.17 | 9.56 ± 4.52 | – | – | –
17 | COc1ccc(CN2CCC(CNC(=O)c3ccc4[nH]nnc4c3)CC2)cc1 [Compound 6f, N-((1-(4-Methoxybenzyl)piperidin-4-yl)methyl)-1H-benzo[d][1,2,3]triazole-5-carboxamide] | – | – | – | 43.07% | 49.63 | –
18 | O=C1Cc2cc(C(=O)NCC3CCN(Cc4ccccc4Cl)CC3)ccc2N1 [Compound 8j, N-((1-(2-Chlorobenzyl)piperidin-4-yl)methyl)-2-Oxoindoline-5-carboxamide] | – | – | – | 14.69% | 22.87 | –
19 | O=C(CC1CCN(CCc2ccccc2Cl)CC1)Nc1ccc2[nH]cnc2c1 [Compound 16d, N-(1H-Benzo[d]imidazol-5-yl)-2-(1-(2-chlorophenethyl)piperidin-4-yl)acetamide] | – | – | – | 8.55% | 38.04 | –
20 | O=C(NCC1CCN(Cc2ccccc2)CC1)c1ccc2[nH]ccc2c1 [Compound 6a, N-((1-Benzylpiperidin-4-yl)methyl)-1H-indole-5-carboxamide] | 1.66 | 52.1 ± 30.2 | 31.4 ± 15.6 | – | – | –
21 | O=C(NCC1CCN(Cc2ccccc2)CC1)c1ccc2[nH]cnc2c1 [Compound 6d, N-((1-Benzylpiperidin-4-yl)methyl)-1H-benzo[d]imidazole-5-carboxamide] | 2.23 | 4.8 ± 0.68 | 2.15 ± 0.63 | – | – | cytotoxicity compared with Tacrine (PC12 cells): less toxic than Tacrine
22 | O=C(CC1CCN(CCc2ccccc2)CC1)Nc1ccc2[nH]ccc2c1 [Compound 16a, N-(1H-Indol-5-yl)-2-(1-phenethylpiperidin-4-yl)acetamide] | – | – | – | 8.61% | 23.49 | –
23 | COc1ccc(CN2CCC(CNC(=O)c3ccc4[nH]ncc4c3)CC2)cc1 [Compound 11b] | – | – | – | 48.57% | – | –
